Experimental data from ChEMBL document CHEMBL4033609, “Naphthablins B and C, Meroterpenoids Identified from the Marine Sediment-Derived Streptomyces sp. CP26-58 Using HeLa Cell-Based Cytological Profiling” (J Nat Prod, 2017).
Activity calls are given as the source filed them. The calls are words filed in the database; no cut-off is given here.

Legend:
HeLa [1] = experiment: Cytotoxic activity against human HeLa cells at 0.382 uM by cytological profiling assay; assay type: functional, cell-based
HeLa [2] = experiment: Cytotoxic activity against human HeLa cells at 1.91 uM by cytological profiling assay; assay type: functional, cell-based
HeLa [3] = experiment: Growth inhibition of human HeLa cells at 33 uM; assay type: functional; settings: read-out: GI
HeLa [4] = experiment: Cytotoxic activity against human HeLa cells at 0.295 uM by cytological profiling assay; assay type: functional, cell-based
HeLa [5] = experiment: Cytotoxic activity against human HeLa cells at 1.47 uM by cytological profiling assay; assay type: functional, cell-based
HeLa [6] = experiment: Cytotoxic activity against human HeLa cells at 1.25 to 10 uM by cytological profiling assay; assay type: functional, cell-based
HeLa [7] = experiment: Cytotoxic activity against human HeLa cells; assay type: functional, cell-based

With `CNc1ccc2oc(C[C@H]3O[C@@]4(CC[C@H]3C)O[C@H]([C@H](C)C(=O)c3ccc[nH]3)[C@H](C)C[C@H]4C)nc2c1C(=O)O` the Activity (HeLa [1]) was “Active” and the Activity (HeLa [2]) was “Active”.
For `CC(C)C(=O)O[C@H]1C[C@H]2[C@@H](C[C@H]1C)C1=C(OC2(C)C)C(=O)c2c(cc(O)c3c2O[C@@H]2[C@@H](O)OC[C@]32C)C1=O`, the inhibition of growth at 33 µM (HeLa [3]) was 32%.
`CCC(C)C(=O)O[C@H]1C[C@H]2[C@@H](C[C@H]1C)C1=C(OC2(C)C)C(=O)c2c(cc(O)c3c2O[C@@H]2[C@@H](O)OC[C@]32C)C1=O` (some centres undefined) was tested, and the inhibition of growth at 33 µM (HeLa [3]) was 25%.
For `C[C@H](CCC(=O)O)C[C@H](C)C[C@H](C)C(=O)/C=C(\O)[C@H](C)C[C@H](C)C/C=C/[C@@H](C)[C@@H](O)[C@@H](C)[C@@H](O)C[C@@H]1CC[C@@](C)([C@H]2CC[C@@](C)([C@@H](C)O)O2)O1`, the Activity (HeLa [4]) was “Active” and the Activity (HeLa [5]) was “Active”.
`C=CC(C)(CO)c1c(O)cc2c(c1O)C(=O)C1=C(C2=O)[C@@H]2C[C@@H](C)[C@@H](OC(=O)C(C)C)C[C@@H]2C(C)(C)O1` (some centres undefined) showed an inhibition of growth at 33 µM (HeLa [3]) of 19%.
In the case of `CO[C@@H](C)[C@H]1C[C@H](C)[C@H]([C@@H](C)/C=C/[C@@H]2CC[C@@H](C)[C@H](/C(=C/[C@H]3CCC[C@@H](C)[C@@H]3[C@H](C)C(=O)C3=C(O)COC3=O)CO)O2)O1` [TETRONASIN 5930], the Activity (HeLa [6]) is reported as “Active” and the IC50 (HeLa [7]) is reported as 230 nM.
